From ChEMBL document CHEMBL1938296, “Steroidal C-21 heteroaryl thioethers (Part 2): discovery of orally bioavailable selective glucocorticoid receptor modulators (dissociated steroids)” (Bioorg Med Chem Lett, 2012)
pEC50, pIC50: −log10 of the molar value.

Assays:
Glucocorticoid receptor [1] = molecular target: T1, Glucocorticoid receptor (Homo sapiens, UniProt P04150); test: Transrepression activity at glucocorticoid receptor in human H292 cells assessed as inhibition of TNF-stimulated IL-8 production; assay type: cell-based
T1 sequence (P04150 whole entry): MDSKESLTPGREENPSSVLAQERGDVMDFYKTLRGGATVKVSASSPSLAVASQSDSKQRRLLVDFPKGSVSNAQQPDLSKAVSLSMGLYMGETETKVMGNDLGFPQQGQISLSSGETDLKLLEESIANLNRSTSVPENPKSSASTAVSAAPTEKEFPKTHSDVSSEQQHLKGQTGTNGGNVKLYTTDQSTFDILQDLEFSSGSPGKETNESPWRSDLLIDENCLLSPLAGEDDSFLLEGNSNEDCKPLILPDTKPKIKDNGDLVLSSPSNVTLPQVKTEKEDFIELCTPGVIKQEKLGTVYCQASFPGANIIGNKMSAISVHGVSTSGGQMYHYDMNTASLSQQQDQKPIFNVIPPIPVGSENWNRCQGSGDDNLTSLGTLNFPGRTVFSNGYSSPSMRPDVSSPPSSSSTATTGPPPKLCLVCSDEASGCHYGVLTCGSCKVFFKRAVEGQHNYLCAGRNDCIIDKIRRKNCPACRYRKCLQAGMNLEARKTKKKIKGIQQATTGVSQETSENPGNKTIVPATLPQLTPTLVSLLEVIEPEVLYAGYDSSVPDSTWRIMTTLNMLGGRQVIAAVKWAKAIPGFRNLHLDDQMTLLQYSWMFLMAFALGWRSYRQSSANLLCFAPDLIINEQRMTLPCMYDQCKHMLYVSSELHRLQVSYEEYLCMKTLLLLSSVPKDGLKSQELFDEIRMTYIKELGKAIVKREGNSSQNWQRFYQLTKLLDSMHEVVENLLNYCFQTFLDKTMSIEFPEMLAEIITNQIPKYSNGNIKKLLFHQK

Rattus norvegicus [2] = test: Antiinflammatory activity against Brown Norway rat allergic lung inflammation model assessed as total cell inhibition at 10 mg/kg, po for 3 days; assay type: functional; set-up: scale not given: the % may be the effect or the level left
Rattus norvegicus [3] = test: Toxicity in Brown Norway rat allergic lung inflammation model assessed as decrease in thymus weight at 10 mg/kg, po for 3 days; assay type: organism-based; set-up: dose 10 mg/kg, route oral; scale not given: the % may be the effect or the level left; conditions: in vivo, 72 h
[4] = AUC in Brown Norway rat at 10 mg/kg, po; assay type: ADME, organism-based; set-up: dose 10 mg/kg, route oral; conditions: plasma
Glucocorticoid receptor [5] = molecular target: T2, Glucocorticoid receptor (Rattus norvegicus, UniProt P06536); test: Transactivation of glucocorticoid receptor in rat H42E cells assessed as induction of TAT measuring degradation of tyrosine to p-hydroxy phenyl pyruvate at 1 uM relative to prednisolone; assay type: cell-based; conditions: read-out: Efficacy
T2 sequence (P06536 whole entry): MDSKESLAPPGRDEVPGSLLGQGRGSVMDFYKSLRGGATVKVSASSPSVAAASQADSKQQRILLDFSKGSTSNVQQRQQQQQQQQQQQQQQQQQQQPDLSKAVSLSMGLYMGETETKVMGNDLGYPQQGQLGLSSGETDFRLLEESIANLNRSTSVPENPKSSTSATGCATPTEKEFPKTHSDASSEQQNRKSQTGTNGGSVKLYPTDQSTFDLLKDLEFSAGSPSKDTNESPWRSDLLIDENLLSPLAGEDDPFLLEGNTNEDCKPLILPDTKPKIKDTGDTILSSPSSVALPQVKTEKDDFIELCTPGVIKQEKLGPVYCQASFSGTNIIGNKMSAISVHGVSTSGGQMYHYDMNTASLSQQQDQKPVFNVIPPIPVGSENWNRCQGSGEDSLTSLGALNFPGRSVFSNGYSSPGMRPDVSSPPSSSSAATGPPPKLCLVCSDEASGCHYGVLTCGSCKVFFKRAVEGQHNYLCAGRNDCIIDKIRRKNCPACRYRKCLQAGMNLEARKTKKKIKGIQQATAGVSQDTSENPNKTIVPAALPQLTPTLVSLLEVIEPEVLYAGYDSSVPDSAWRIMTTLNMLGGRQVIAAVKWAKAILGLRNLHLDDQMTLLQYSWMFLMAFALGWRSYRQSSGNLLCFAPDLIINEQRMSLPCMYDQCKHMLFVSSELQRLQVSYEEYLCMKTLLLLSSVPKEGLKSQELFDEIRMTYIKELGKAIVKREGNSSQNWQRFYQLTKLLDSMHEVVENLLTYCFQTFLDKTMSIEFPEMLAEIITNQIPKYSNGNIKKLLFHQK

Glucocorticoid receptor [6] = molecular target: T1, Glucocorticoid receptor; test: Transactivation of glucocorticoid receptor in human HepG2 cells assessed as induction of TAT measuring degradation of tyrosine to p-hydroxy phenyl pyruvate at 1 uM relative to untreated control; assay type: cell-based; conditions: hepg2, 1 µM
Glucocorticoid receptor [7] = molecular target: T2, Glucocorticoid receptor; test: Transactivation of glucocorticoid receptor in rat H42E cells assessed as induction of TAT measuring degradation of tyrosine to p-hydroxy phenyl pyruvate; assay type: cell-based; conditions: read-out: IC50 (the source's name)
Glucocorticoid receptor [8] = molecular target: T1, Glucocorticoid receptor; test: Transactivation of glucocorticoid receptor in human HepG2 cells assessed as induction of TAT measuring degradation of tyrosine to p-hydroxy phenyl pyruvate; assay type: cell-based; conditions: read-out: IC50 (the source's name)

SMILES	pIC50 (Glucocorticoid receptor [1])	Activity (Rattus norvegicus [2])	Activity (Rattus norvegicus [3])	AUC [4]	Emax at 1 µM (Glucocorticoid receptor [5])	Efficacy (Glucocorticoid receptor [6])	pEC50 (Glucocorticoid receptor [7])	pEC50 (Glucocorticoid receptor [8])
C[C@]12C=CC(=O)C=C1CC[C@@H]1[C@@H]2[C@@H](O)C[C@@]2(C)[C@H]1CC[C@]2(O)C(=O)CSc1ncc2ccccc2n1	7.16	46%	11%	606 ng·h/mL	2%	10%	–	–
C[C@]12C=CC(=O)C=C1CC[C@@H]1[C@@H]2[C@@H](O)C[C@@]2(C)[C@H]1CC[C@]2(O)C(=O)CSc1nc2cccnc2s1	6.93	–	–	–	7%	6%	–	–
CCn1c(SCC(=O)[C@@]2(O)CC[C@H]3[C@@H]4CCC5=CC(=O)C=C[C@]5(C)[C@H]4[C@@H](O)C[C@@]32C)nc2ccccc21	7.38	–	–	–	10%	9%	–	–
C[C@@H]1C[C@H]2[C@@H]3CCC4=CC(=O)C=C[C@]4(C)[C@H]3[C@@H](O)C[C@]2(C)[C@@]1(O)C(=O)CSc1nccc2ccccc12	7.75	–	–	–	6%	8%	–	–
C[C@@H]1C[C@H]2[C@@H]3CCC4=CC(=O)C=C[C@]4(C)[C@H]3[C@@H](O)C[C@]2(C)[C@@]1(O)C(=O)CSc1nc2ncccc2o1	8.22	–	–	–	37%	32%	6.87	–
C[C@@H]1C[C@H]2[C@@H]3CCC4=CC(=O)C=C[C@]4(C)[C@H]3[C@@H](O)C[C@]2(C)[C@@]1(O)C(=O)CSc1nc2ccccc2n1C	7.16	–	–	–	2%	13%	–	–
C[C@@H]1C[C@H]2[C@@H]3CCC4=CC(=O)C=C[C@]4(C)[C@H]3[C@@H](O)C[C@]2(C)[C@@]1(O)C(=O)CSc1nc2cccnc2s1	8.15	75%	75%	11900 ng·h/mL	13%	27%	7.62	6.14
C[C@@H]1C[C@H]2[C@@H]3CCC4=CC(=O)C=C[C@]4(C)[C@H]3[C@@H](O)C[C@]2(C)[C@@]1(O)C(=O)CSc1nnc(-c2ccccc2)o1	8.29	–	–	–	65%	57%	6.13	7.10
C[C@]12C=CC(=O)C=C1CC[C@@H]1[C@@H]2[C@@H](O)C[C@@]2(C)[C@H]1CC[C@]2(O)C(=O)CSc1nc2ccccc2o1	7.87	–	–	26 ng·h/mL	32%	22%	–	–
C[C@@H]1C[C@H]2[C@@H]3CCC4=CC(=O)C=C[C@]4(C)[C@H]3[C@@H](O)C[C@]2(C)[C@@]1(O)C(=O)CSc1nc2ccccc2s1	8.24	–	–	–	35%	62%	6.64	6.00
C[C@]12C=CC(=O)C=C1CC[C@@H]1[C@@H]2[C@@H](O)C[C@@]2(C)[C@H]1CC[C@]2(O)C(=O)CSc1ccc2ccccc2n1	7.15	21%	0%	1200 ng·h/mL	56%	52%	6.44	6.58
C[C@]12C=CC(=O)C=C1CC[C@@H]1[C@@H]2[C@@H](O)C[C@@]2(C)[C@H]1CC[C@]2(O)C(=O)CSc1nc2ccccc2s1	–	45%	15%	1220 ng·h/mL	19%	–	–	–
C[C@@H]1C[C@H]2[C@@H]3CCC4=CC(=O)C=C[C@]4(C)[C@H]3[C@@H](O)C[C@]2(C)[C@@]1(O)C(=O)CSc1nc2ccccc2[nH]1	7.44	–	–	–	3%	30%	–	–
C[C@@H]1C[C@H]2[C@@H]3CCC4=CC(=O)C=C[C@]4(C)[C@H]3[C@@H](O)C[C@]2(C)[C@@]1(O)C(=O)CSc1nc2ccccc2o1	8.36	–	–	–	–	–	–	–
C[C@]12C=CC(=O)C=C1CC[C@@H]1[C@@H]2[C@@H](O)C[C@@]2(C)[C@H]1CC[C@]2(O)C(=O)CSc1nc(-c2ccccc2)cs1	6.52	–	–	–	9%	42%	–	–
Cc1ccnc(SCC(=O)[C@@]2(O)CC[C@H]3[C@@H]4CCC5=CC(=O)C=C[C@]5(C)[C@H]4[C@@H](O)C[C@@]32C)n1	7.94	–	–	–	6%	6%	–	–
C[C@@H]1C[C@H]2[C@@H]3CCC4=CC(=O)C=C[C@]4(C)[C@H]3[C@@H](O)C[C@]2(C)[C@@]1(O)C(=O)CO	8.80	–	–	–	–	125%	–	7.80
Cc1cccc(SCC(=O)[C@@]2(O)[C@H](C)C[C@H]3[C@@H]4CCC5=CC(=O)C=C[C@]5(C)[C@H]4[C@@H](O)C[C@@]32C)n1	8.77	–	–	–	29%	33%	–	–
C[C@@H]1C[C@H]2[C@@H]3CCC4=CC(=O)C=C[C@]4(C)[C@H]3[C@@H](O)C[C@]2(C)[C@@]1(O)C(=O)CSc1cnc2ccccc2n1	7.42	85%	65%	1950 ng·h/mL	3%	54%	–	–
C[C@]12C=CC(=O)C=C1CC[C@@H]1[C@@H]2[C@@H](O)C[C@@]2(C)[C@H]1CC[C@]2(O)C(=O)CSc1ccccn1	7.36	–	–	–	23%	22%	6.15	6.62
C[C@]12C=CC(=O)C=C1CC[C@@H]1[C@@H]2[C@@H](O)C[C@@]2(C)[C@H]1CC[C@]2(O)C(=O)CSc1nc2ncccc2[nH]1	7.24	–	–	–	2%	7%	–	–
C[C@@H]1C[C@H]2[C@@H]3CCC4=CC(=O)C=C[C@]4(C)[C@H]3[C@@H](O)C[C@]2(C)[C@@]1(O)C(=O)CSc1ncnc2ccccc12	7.63	–	–	–	8%	30%	–	–
C[C@@H]1C[C@H]2[C@@H]3CCC4=CC(=O)C=C[C@]4(C)[C@H]3[C@@H](O)C[C@]2(C)[C@@]1(O)C(=O)CSc1ccc2ccccc2n1	7.33	73%	66%	5280 ng·h/mL	45%	19%	7.72	–
C[C@]12C=CC(=O)C=C1CC[C@@H]1[C@@H]2[C@@H](O)C[C@@]2(C)[C@H]1CC[C@]2(O)C(=O)CSc1nc2ncccc2o1	7.76	56%	9%	2940 ng·h/mL	29%	21%	–	–
